Consider one molecule from publication PMC5529018, “Discovery of novel brain permeable and G protein-biased beta-1 adrenergic receptor partial agonists for the treatment of neurocognitive disorders” (PLoS ONE, 2017).

SMILES strings stand for the structures.

For data set [1], the system named is LPS-induced TNFα production in primary microglia. Kind of data set: In vitro primary microglia TNFα assay. Format: cell-based, Sprague Dawley rat. Particulars: Rattus norvegicus, 10 μM compound, LPS 10 ng/ml, 4 hrs, ELISA, read-out: inhibition of LPS-induced TNFα production. From the text:
Mixed glial cells were obtained from the cerebral cortex of Sprague Dawley rat pups at postnatal days 1–3. Briefly, neonates were euthanized by decapitation and their brain tissues were collected for cortex isolation. The isolated cortex was then trypsinized, triturated, and placed into tissue culture flasks in DMEM supplemented with 10% fetal bovine serum and 1% Penicillin/Streptomycin. After 10 days in vitro, microglia were harvested by gentle shaking of the growth flask, plated in a 96 well plate at a density of 30,000 cells/well, and incubated at 37°C overnight.

Data set [2] in a line: Microsomal stability assay, mouse. Format: in vitro ADME. Particulars: 0.1 uM.
Data set [3] can be described thus: Pharmacokinetic study 1, 4-hr time course. The class given is in vivo, Sprague-Dawley rats. To be noted: rat; for AUCinf / Cmax: 10 mg/kg PO. From the text: Two cohorts of Sprague-Dawley rats were used in two independent studies. All animals were fasted overnight before the experiment with free access to water. In study 1, a total of 18 rats were used for a 4 hr time course pharmacokinetic (PK) study. Rats were anesthetized with 3% isoflurane and catheters were implanted into the jugular and/or portal veins for compound administration and/or blood sampling at 1 to 2 days prior to the experiments as previously described. […] Four hours post-dose, rats were deeply anesthetized with isoflurane and blood samples were collected by cardiac puncture. In study 2, a total of 18 rats were used for a 20 min post-dose collection study. […] At 20 min post-dose, rats were deeply anesthetized with isoflurane and blood samples were collected by cardiac puncture. Brains were collected after perfusion with phosphate buffered saline. All plasma samples were immediately separated after collection by centrifugation (11,000 rpm for 3 minutes) and stored at −80°C until analysis. […] Tulobuterol was used as the internal standard. The flow rate was set to 0.45 ml/min. Column temperature was 25°C. […] The injection volume was 20 μl. The mass spectrometer was operated in the positive mode with multiple-reaction monitoring (MRM). […] Mobile phase A consisted of 10 mM ammonium acetate and 0.1% formic acid in LCMS grade water. Mobile phase B consisted of 10 mM ammonium acetate and 0.1% formic acid in LCMS grade acetonitrile:water 90:10% (v/v). […] Five μl of the extracted samples were injected. […] Data acquisition and analysis were performed using the Analyst 1.6.1 software (AB SCIEX, CA).

In a further data set the target is ADRB3 (Homo sapiens, UniProt P13945). Kind of data set: Radioligand binding ADRB3. To be noted: S2 Table; hot ligand [3H]CGP12177; read-out: Binding Affinity Ki.
Sequence of ADRB3 (P13945 whole entry): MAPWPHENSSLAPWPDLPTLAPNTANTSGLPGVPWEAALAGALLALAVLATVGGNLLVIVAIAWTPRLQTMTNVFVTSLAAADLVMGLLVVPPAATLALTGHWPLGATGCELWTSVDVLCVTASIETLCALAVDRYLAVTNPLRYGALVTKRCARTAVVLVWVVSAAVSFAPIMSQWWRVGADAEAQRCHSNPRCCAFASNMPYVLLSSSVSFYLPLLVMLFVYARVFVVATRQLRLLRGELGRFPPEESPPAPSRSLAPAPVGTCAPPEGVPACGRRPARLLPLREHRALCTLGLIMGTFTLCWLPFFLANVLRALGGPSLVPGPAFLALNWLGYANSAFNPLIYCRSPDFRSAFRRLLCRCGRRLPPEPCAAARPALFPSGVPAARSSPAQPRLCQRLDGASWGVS
In the next data set the target is ADR- Alpha 1B (Homo sapiens, UniProt P35368). Briefly: Radioligand binding ADR Alpha 1B. Particulars: S2 Table; hot ligand [3H] Prazosin; read-out: Binding Affinity Ki.
Sequence of ADR- Alpha 1B (P35368 whole entry): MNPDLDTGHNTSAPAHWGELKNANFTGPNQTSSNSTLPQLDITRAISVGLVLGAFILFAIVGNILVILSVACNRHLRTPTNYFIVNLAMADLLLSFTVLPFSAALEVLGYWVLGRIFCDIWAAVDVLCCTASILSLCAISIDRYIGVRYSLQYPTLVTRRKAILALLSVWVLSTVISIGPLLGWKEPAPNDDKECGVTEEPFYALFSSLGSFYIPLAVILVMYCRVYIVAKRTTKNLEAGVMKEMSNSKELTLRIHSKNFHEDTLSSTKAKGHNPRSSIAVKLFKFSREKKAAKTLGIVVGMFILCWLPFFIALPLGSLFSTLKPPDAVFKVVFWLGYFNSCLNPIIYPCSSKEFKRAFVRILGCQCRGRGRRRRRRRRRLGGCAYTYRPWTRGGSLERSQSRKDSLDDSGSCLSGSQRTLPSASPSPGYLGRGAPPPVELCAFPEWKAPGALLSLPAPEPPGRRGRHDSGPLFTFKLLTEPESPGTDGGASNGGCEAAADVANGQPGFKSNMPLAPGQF
A further data set has as its target ADR - Alpha 1D (Homo sapiens, UniProt P25100). Briefly: Radioligand binding ADR Alpha 1D. Particulars: S2 Table; hot ligand [3H] Prazosin; read-out: Binding Affinity Ki.
A further data set addresses ADR - Alpha 2A (Homo sapiens, UniProt P08913). Kind of data set: Radioligand binding ADR Alpha 2A. To be noted: S2 Table; hot ligand [3H] Rauwolscine; read-out: Binding Affinity Ki.
The target in another data set is ADR - Alpha 2B (Homo sapiens, UniProt P18089). Kind of data set: Radioligand binding ADR Alpha 2B. To be noted: S2 Table; hot ligand [3H] Rauwolscine; read-out: Binding Affinity Ki.
In a further data set the target is ADR - Alpha 2C (Homo sapiens, UniProt P18825). Kind of data set: Radioligand binding ADR Alpha 2C. Particulars: S2 Table; hot ligand [3H] Rauwolscine; read-out: Binding Affinity Ki.
Sequence of ADR - Alpha 2C (P18825 whole entry): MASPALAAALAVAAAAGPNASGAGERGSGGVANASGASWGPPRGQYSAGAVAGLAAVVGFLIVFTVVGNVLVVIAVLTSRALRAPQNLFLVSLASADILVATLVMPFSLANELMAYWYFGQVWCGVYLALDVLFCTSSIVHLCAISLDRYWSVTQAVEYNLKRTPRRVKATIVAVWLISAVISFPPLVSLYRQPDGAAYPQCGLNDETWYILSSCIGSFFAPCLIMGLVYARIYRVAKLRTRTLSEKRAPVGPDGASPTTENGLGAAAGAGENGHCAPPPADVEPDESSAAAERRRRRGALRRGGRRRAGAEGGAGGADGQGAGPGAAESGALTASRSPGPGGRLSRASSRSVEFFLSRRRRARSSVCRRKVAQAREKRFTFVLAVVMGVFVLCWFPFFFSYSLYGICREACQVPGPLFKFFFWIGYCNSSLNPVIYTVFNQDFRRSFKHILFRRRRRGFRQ
A further data set deals with 5-HT 1A (Homo sapiens, UniProt P08908). Briefly: Radioligand binding 5-HT 1A. To be noted: S2 Table; hot ligand [3H]8-OH-DPAT; read-out: Binding Affinity Ki.
Sequence of 5-HT 1A (P08908 whole entry, species assumed): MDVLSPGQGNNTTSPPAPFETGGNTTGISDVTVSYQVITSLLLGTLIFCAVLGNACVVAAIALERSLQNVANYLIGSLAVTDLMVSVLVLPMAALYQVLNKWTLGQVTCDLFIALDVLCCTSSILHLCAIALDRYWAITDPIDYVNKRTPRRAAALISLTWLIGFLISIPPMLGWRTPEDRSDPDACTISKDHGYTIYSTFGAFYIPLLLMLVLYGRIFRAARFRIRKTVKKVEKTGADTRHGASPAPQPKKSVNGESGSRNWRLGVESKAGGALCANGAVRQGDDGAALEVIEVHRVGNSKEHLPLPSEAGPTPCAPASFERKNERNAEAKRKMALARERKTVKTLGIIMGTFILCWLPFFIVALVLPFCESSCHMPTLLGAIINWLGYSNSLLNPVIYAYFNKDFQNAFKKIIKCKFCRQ
The next data set deals with 5-HT1B (Homo sapiens, UniProt P28222). Briefly: Radioligand binding 5-HT1B. Particulars: S2 Table; hot ligand [3H]GR125743; read-out: Binding Affinity Ki.
Sequence of 5-HT1B (P28222 whole entry, species assumed): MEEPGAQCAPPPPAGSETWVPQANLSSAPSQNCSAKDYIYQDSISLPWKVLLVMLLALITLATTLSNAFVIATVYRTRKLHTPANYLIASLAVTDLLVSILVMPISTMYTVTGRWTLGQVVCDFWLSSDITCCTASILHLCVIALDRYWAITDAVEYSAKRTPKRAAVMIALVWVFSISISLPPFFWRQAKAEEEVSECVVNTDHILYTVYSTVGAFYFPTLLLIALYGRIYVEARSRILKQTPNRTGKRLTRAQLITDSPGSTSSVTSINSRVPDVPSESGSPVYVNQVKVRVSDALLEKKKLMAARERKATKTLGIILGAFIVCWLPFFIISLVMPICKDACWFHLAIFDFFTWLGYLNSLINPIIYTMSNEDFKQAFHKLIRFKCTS
For another data set, the target named is 5-HT 2A (Homo sapiens, UniProt P28223). Kind of data set: Radioligand binding 5-HT 2A. To be noted: S2 Table; hot ligand [3H]Ketanserin; read-out: Binding Affinity Ki.
Sequence of 5-HT 2A (P28223 whole entry, species assumed): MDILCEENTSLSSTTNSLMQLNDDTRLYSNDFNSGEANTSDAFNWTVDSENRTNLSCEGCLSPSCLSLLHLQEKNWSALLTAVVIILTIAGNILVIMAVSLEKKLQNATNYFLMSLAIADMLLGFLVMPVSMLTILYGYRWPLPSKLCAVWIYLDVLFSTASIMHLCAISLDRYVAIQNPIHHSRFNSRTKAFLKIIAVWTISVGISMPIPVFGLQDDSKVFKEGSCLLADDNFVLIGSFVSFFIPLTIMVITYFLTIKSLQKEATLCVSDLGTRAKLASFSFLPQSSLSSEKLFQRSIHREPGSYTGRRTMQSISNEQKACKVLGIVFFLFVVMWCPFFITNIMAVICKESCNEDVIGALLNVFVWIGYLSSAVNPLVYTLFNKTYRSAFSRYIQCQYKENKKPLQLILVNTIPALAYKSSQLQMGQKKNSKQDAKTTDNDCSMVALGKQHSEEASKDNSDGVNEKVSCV
For a further data set, the target named is 5-HT6 (Homo sapiens, UniProt P50406). Kind of data set: Radioligand binding 5-HT6. Particulars: S2 Table; hot ligand [3H]LSD; read-out: Binding Affinity Ki.
Sequence of 5-HT6 (P50406 whole entry, species assumed): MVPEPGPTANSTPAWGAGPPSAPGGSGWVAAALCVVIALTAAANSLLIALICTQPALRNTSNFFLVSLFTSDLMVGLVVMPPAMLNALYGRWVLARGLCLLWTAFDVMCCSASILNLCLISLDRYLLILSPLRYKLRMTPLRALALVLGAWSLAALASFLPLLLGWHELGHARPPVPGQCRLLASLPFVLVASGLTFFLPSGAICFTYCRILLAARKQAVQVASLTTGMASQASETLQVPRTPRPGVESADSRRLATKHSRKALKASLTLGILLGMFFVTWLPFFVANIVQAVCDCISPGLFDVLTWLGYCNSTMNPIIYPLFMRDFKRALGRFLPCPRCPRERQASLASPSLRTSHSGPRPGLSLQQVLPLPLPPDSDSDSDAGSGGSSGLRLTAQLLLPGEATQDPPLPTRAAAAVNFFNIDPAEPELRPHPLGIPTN
The next data set has as its target D3 dopamine receptor (Homo sapiens, UniProt P35462). Briefly: Radioligand binding D3. To be noted: S2 Table; hot ligand [3H]N-Methylspiperone; read-out: Binding Affinity Ki.
Another data set has as its target Sigma 2 receptor (Homo sapiens, UniProt Q5BJF2). Kind of data set: Radioligand binding Sigma 2 receptor. To be noted: S2 Table; hot ligand [3H]DTG; read-out: Binding Affinity Ki.
The nature of data set [4]: Brain uptake in the in vivo LPS study. Also noted: species or system C57Bl/6J mice. To be noted: C57Bl/6J, mouse, ip, mice, 3 mg/kg intraperitoneal, 105 min post-dose, read-out: concentration in brain homogenates. The protocol: ; subcutaneous; […]; intraperitoneal; n = 4) or vehicle (5% DMSO/20%PEG400/water; intraperitoneal; n = 12) 15 min prior to LPS (50 ug/kg; intraperitoneal). A control group was injected with vehicle 15 minutes prior to saline (n = 18). Following injections, mice were single-housed. At 90 min post-LPS/saline, mice were deeply anesthetized with isoflurane and blood was collected from the right ventricle via cardiac puncture (23 g needle) into lithium heparin-containing vials (BD microtainer plasma tubes). Subsequently, brains were collected after perfusion with phosphate-buffered saline. Plasma was separated by centrifugation (11,000 rpm for 3 minutes) within 60 min of collection and stored at -80°C until analysis. The concentration of TNFα in the collected plasma was measured by ELISA (Invitrogen, KMC3012) according to the manufacturer’s instruction. The LPS-induced inflammatory response in the CNS was assessed by measuring mRNA expression for genes related to neuroimmune activation in brain tissue according to the previously reported method. […] Fold changes of expression relative to control were determined after normalization to GAPDH. Relative quantification and fold change were calculated by the comparative CT method. Brain uptake of STD-101-D1 was determined in brain tissue. […]

Sequence of ADR - Alpha 1D (P25100 whole entry): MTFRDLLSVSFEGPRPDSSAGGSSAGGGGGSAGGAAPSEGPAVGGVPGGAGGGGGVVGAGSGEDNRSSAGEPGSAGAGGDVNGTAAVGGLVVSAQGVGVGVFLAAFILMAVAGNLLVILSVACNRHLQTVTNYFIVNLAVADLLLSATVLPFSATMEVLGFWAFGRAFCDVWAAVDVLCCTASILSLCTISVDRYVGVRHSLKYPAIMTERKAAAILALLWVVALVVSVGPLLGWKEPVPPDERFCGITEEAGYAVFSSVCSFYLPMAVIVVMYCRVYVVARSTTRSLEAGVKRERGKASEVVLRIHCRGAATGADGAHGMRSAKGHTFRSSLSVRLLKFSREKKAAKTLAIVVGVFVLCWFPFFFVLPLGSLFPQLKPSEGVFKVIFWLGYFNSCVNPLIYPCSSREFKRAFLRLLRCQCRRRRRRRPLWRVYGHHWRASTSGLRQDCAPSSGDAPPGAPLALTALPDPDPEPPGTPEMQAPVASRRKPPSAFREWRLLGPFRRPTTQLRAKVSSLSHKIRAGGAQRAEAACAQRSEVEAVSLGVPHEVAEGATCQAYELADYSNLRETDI
Sequence of ADR - Alpha 2A (P08913 whole entry): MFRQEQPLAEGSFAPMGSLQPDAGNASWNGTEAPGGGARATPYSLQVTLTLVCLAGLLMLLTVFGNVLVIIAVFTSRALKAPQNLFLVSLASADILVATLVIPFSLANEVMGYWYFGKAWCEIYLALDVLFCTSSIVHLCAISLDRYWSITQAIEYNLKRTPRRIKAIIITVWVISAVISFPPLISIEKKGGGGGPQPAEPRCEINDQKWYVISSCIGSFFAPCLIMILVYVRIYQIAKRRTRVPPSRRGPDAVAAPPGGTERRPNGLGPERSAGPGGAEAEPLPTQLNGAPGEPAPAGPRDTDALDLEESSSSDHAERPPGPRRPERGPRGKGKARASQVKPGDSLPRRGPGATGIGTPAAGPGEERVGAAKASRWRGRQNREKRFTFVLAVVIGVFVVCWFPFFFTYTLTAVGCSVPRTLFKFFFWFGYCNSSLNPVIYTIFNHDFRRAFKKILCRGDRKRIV
Sequence of Sigma 2 receptor (Q5BJF2 whole entry, species assumed): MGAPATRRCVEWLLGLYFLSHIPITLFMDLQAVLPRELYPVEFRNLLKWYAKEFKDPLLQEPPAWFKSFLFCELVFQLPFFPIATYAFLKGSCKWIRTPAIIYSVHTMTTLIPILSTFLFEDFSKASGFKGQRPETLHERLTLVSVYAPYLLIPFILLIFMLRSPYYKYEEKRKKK
Sequence of D3 dopamine receptor (P35462 whole entry): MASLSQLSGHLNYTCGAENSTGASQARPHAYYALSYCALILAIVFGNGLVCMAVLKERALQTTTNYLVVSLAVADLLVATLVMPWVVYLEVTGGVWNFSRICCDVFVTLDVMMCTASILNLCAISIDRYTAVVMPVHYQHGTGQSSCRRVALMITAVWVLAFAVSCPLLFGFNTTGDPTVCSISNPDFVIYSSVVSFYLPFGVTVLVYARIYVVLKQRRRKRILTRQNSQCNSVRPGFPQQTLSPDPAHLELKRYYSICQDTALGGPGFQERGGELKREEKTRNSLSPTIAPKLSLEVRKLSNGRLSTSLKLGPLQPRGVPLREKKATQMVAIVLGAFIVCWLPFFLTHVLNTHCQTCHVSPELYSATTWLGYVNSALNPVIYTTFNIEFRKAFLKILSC

As to `COc1ccccc1OCCNC[C@H](O)COc1ccc(O)cc1.COc1ccccc1OCCNC[C@H](O)COc1ccc(O)cc1.O=C(O)/C=C/C(=O)O` [STD-101-D1, (S)-4-(2-hydroxy-3-((2-(2-methoxyphenoxy)ethyl)amino)propoxy)phenol hemifumarate], in data set [1], the inhibition at 10 µM is around 50%. The “compound remaining after 60 min, mouse liver microsomes” value in data set [2] came to 62.8%. Besides, the “time post-dose at which Cmax was achieved” value in [3] (10 mg/kg IP, systemic plasma) is given as 90 min. Besides, the AUCinf in data set [3] (portal vein plasma) amounted to 362 ± 367 ng·h/mL; in data set [3] (systemic (jugular vein) plasma) it was 101 ± 29 ng·h/mL. Further, the Cmax is recorded as 946 ± 867 ng/mL in data set [3] (portal vein plasma) and 116 ± 78 ng/mL in data set [3] (systemic (jugular vein) plasma). Further, the Ki at ADRB3 was 485 nM; on ADR- Alpha 1B it was 267 nM; at ADR - Alpha 1D, 25 nM; at ADR - Alpha 2A, 1170 nM; on ADR - Alpha 2B, 337 nM; at ADR - Alpha 2C it was 108 nM. The Ki on 5-HT 1A turned out to be 11 nM; on 5-HT1B, 382 nM; on 5-HT 2A, 1240 nM; at 5-HT6, 1770 nM; on D3 dopamine receptor, 47 nM; on Sigma 2 receptor it was 236 nM. Further, the concentration at 105 min in data set [4] was found to be 130 ± 28.2 ng/g.

Broadly, the inhibition is how much of the control response was suppressed. As a reminder, the Cmax is the maximum level reached in the sampled fluid or tissue. Usually Ki stands for the dissociation constant of the complex between target and ligand, obtained from inhibition or displacement.
